# Molecular target: T1, human CRTH2 (Homo sapiens, UniProt Q9Y5Y4)
# T1 construct: expressed in transfected cells
# T1 sequence (Q9Y5Y4 1-395): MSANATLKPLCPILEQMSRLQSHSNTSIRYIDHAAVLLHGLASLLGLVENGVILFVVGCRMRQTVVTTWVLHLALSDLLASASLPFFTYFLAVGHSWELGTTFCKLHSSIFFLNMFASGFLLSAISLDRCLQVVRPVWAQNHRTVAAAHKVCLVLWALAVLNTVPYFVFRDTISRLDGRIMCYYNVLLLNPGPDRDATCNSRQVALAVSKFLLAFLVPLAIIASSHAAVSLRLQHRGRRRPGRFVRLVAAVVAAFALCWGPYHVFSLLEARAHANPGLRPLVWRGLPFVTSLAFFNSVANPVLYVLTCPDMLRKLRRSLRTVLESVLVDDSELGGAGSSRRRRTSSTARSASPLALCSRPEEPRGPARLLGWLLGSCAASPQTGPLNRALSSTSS
# Assay: [35S]GTPγS binding assay (SPA) on membranes from CHO-K1 cells stably expressing human CRTH2, stimulated with 60 nM DHK-PGD2
# Format: biochemical
# Settings: membranes of CHO-K1 cells expressing human CRTH2; 60 nM DHK-PGD2; Table 1; read-out: CRTH2 hGTPγS IC50
# Procedure, shortened: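 Membranes (4 μg) from CHO-K1 cells stably expressing human CRTH2 were incubated with compounds, 60 nM DHK-PGD2, 500 pM [35S]GTPγS and 10 μM GDP plus WGA SPA beads. Buffer was 20 mM HEPES pH 7.4, 10 mM MgCl2, 300 mM NaCl, 0.2% BSA, with 1% DMSO. Incubation ran 2 h at ambient temperature, with SPA scintillation read 4 h after centrifugation.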
row,IC50,SMILES
1,0.2 nM,"CN(Cc1ccc(OCC(=O)O)c(-c2cc(F)cc(C#N)c2)c1)S(=O)(=O)c1cc(Cl)c(Cl)s1 [Example 192, 2-(3-cyano-5-fluorophenyl)-4-((2,3-dichloro-N-methylthiophene-5-sulfonamido)methyl)phenoxyacetic acid]"
2,12 nM,"CN(Cc1ccc(OCC(=O)O)c(-c2cc(F)cc(C#N)c2)c1)S(=O)(=O)c1ccc(F)cc1 [Example 64, 2-(3-cyano-5-fluorophenyl)-4-((4-fluoro-N-methylphenylsulfonamido)methyl)phenoxyacetic acid]"
3,15 nM,"N#Cc1cc(F)cc(-c2cc(CNS(=O)(=O)c3ccc(F)c(F)c3)ccc2OCC(=O)O)c1 [Example 194, 2-(3-cyano-5-fluorophenyl)-4-((3,4-difluorophenylsulfonamido)methyl)phenoxyacetic acid]"

# Same assay, conditions: potency class symbols; Table 2; read-out: CRTH2 hGTPγS IC50
row,SMILES,IC50
1,"CN(Cc1cc(F)c(OCC(=O)O)c(-c2cccc(C#N)c2)c1)S(=O)(=O)c1ccc(F)cc1 [Example 136, 2-(3-cyanophenyl)-4-((4-fluoro-N-methylphenylsulfonamido)methyl)-6-fluorophenoxyacetic acid]",100 to 1000 nM
2,"CN(Cc1ccc(OCC(=O)O)c(-c2cccc(C(F)(F)F)c2)c1)S(=O)(=O)c1cc(F)cc(F)c1 [Example 137, 2-(3-trifluoromethylphenyl)-4-((3,5-difluoro-N-methylphenylsulfonamido)methyl)phenoxyacetic acid]",100 to 1000 nM
3,"CN(Cc1ccc(OCC(=O)O)c(-c2cccc(C(F)(F)F)c2)c1)S(=O)(=O)c1ccc(S(C)(=O)=O)cc1 [Example 134, 2-(3-trifluoromethylphenyl)-4-((4-methylsulfonyl-N-methylphenylsulfonamido)methyl)phenoxyacetic acid]",100 to 1000 nM
4,"CN(Cc1ccc(OCC(=O)O)c(-c2cccc(Cl)c2)c1)S(=O)(=O)c1ccc(F)cc1 [Example 163, 2-(3-chlorophenyl)-4-((4-fluoro-N-methylphenylsulfonamido)methyl)phenoxyacetic acid]",1000 to 10000 nM
5,"CN(Cc1ccc(OCC(=O)O)c(-c2cc(F)cc(F)c2)c1)S(=O)(=O)c1ccc(F)cc1 [Example 106, 2-(3,5-difluorophenyl)-4-((4-fluoro-N-methylphenylsulfonamido)methyl)phenoxyacetic acid]",100 to 1000 nM
6,"CN(C)C(=O)c1cccc(-c2cc(CN(C)S(=O)(=O)c3ccc(F)cc3)ccc2OCC(=O)O)c1 [Example 138, 2-(3-dimethylaminocarbonylphenyl)-4-((4-fluoro-N-methylphenylsulfonamido)methyl)phenoxyacetic acid]",100 to 1000 nM
7,"CN(Cc1ccc(OCC(=O)O)c(-c2cc(Cl)cc(C#N)c2)c1)S(=O)(=O)c1ccc(F)cc1 [Example 207, 2-(3-cyano-5-chloro-phenyl)-4-((4-fluoro-N-methylphenylsulfonamido)methyl)phenoxyacetic acid]",< 100 nM
8,"CN(Cc1ccc(OCC(=O)O)c(-c2cccc(C(=O)N3CCOCC3)c2)c1)S(=O)(=O)c1ccc(F)cc1 [Example 175, 2-(3-morpholinocarbonylphenyl)-4-((4-fluoro-N-methylphenylsulfonamido)methyl)phenoxyacetic acid]",1000 to 10000 nM
9,"Cc1ccc(S(=O)(=O)N(C)Cc2ccc(OCC(=O)O)c(-c3cccc(S(C)(=O)=O)c3)c2)cc1 [Example 59, 2-(3-methylsulfonylphenyl)-4-((4-methyl-N-methylphenylsulfonamido)methyl)phenoxyacetic acid]",< 100 nM
10,"Cc1cc(S(=O)(=O)N(C)Cc2ccc(OCC(=O)O)c(-c3cccc(C#N)c3)c2)ccc1F [Example 66, 2-(3-cyanophenyl)-4-((3-methyl-4-fluoro-N-methylphenylsulfonamido)methyl)phenoxyacetic acid]",< 100 nM
11,"CN(Cc1ccc(OCC(=O)O)c(-c2cccc(C(F)(F)F)n2)c1)S(=O)(=O)c1ccc(F)cc1 [Example 127, 2-(6-trifluoromethyl-2-pyridinyl)-4-((4-fluoro-N-methylphenylsulfonamido)methyl)phenoxyacetic acid]",100 to 1000 nM
12,"CN(Cc1cc(-c2cccc(C#N)c2)c(OCC(=O)O)cc1F)S(=O)(=O)c1ccc(F)c(Cl)c1 [Example 43, 2-(3-cyanophenyl)-4-((3-chloro-4-fluoro-N-methylphenylsulfonamido)methyl)-5-fluorophenoxyacetic acid]",< 100 nM
13,"CN(Cc1ccc(OCC(=O)O)c(-c2ccccc2)c1)S(=O)(=O)c1ccccc1 [Example 169, 2-phenyl-4-((N-methylphenylsulfonamido)methyl)phenoxyacetic acid]",1000 to 10000 nM
14,"CN(Cc1ccc(OCC(=O)O)c(-c2ccc(F)c(Cl)c2)c1)S(=O)(=O)c1ccc(F)cc1 [Example 157, 2-(3-chloro-4-fluorophenyl)-4-((4-fluoro-N-methylphenylsulfonamido)methyl)phenoxyacetic acid]",1000 to 10000 nM
15,"CN(Cc1ccc(OCC(=O)O)c(-c2cccc(C#N)c2)c1)S(=O)(=O)c1cccc(F)c1 [Example 89, 2-(3-cyanophenyl)-4-((3-fluoro-N-methylphenylsulfonamido)methyl)phenoxyacetic acid]",< 100 nM
16,"CN(Cc1ccc(OCC(=O)O)c(-c2cccc(C(F)(F)F)c2)c1)S(=O)(=O)c1ccccc1Cl [Example 170, 2-(3-trifluoromethylphenyl)-4-((2-chloro-N-methylphenylsulfonamido)methyl)phenoxyacetic acid]",1000 to 10000 nM
17,"CN(Cc1ccc(OCC(=O)O)c(-c2cccc3cnccc23)c1)S(=O)(=O)c1ccc(F)cc1 [Example 185, 2-(isoquinolin-5-yl)-4-((4-fluoro-N-methylphenylsulfonamido)methyl)phenoxyacetic acid]",1000 to 10000 nM
18,"CN(Cc1ccc(OCC(=O)O)c(-c2cccnc2)c1)S(=O)(=O)c1ccc(F)cc1 [Example 147, 2-(3-pyridinyl)-4-((4-fluoro-N-methylphenylsulfonamido)methyl)phenoxyacetic acid]",100 to 1000 nM
19,"CN(Cc1ccc(OCC(=O)O)c(-c2cccc(C(F)(F)F)c2)c1)S(=O)(=O)C1CC1 [Example 181, 2-(3-trifluoromethylphenyl)-4-((N-methylcyclopropanesulfonamido)methyl)phenoxyacetic acid]",1000 to 10000 nM
20,"CN(Cc1ccc(OCC(=O)O)c(-c2ccc(F)c(F)c2)c1)S(=O)(=O)c1ccccc1 [Example 154, 2-(3,4-difluorophenyl)-4-((N-methylphenylsulfonamido)methyl)phenoxyacetic acid]",1000 to 10000 nM

# Next, values leading:
row,IC50,SMILES
1,< 100 nM,"CN(Cc1ccc(OCC(=O)O)c(-c2cccc(S(C)(=O)=O)c2)c1)S(=O)(=O)c1ccc(F)c(Cl)c1 [Example 39, 2-(3-methylsulfonylphenyl)-4-((3-chloro-4-fluoro-N-methylphenylsulfonamido)methyl)phenoxyacetic acid]"
2,< 100 nM,"CN(Cc1ccc(OCC(=O)O)c(-c2cc(F)cc(F)c2)c1)S(=O)(=O)c1ccc(F)c(F)c1 [Example 90, 2-(3,5-difluorophenyl)-4-((3,4-difluoro-N-methylphenylsulfonamido)methyl)phenoxyacetic acid]"
3,< 100 nM,"COc1ccc(S(=O)(=O)N(C)Cc2ccc(OCC(=O)O)c(-c3cccc(S(C)(=O)=O)c3)c2)cc1 [Example 69, 2-(3-methylsulfonylphenyl)-4-((4-methoxy-N-methylphenylsulfonamido)methyl)phenoxyacetic acid]"
4,< 100 nM,"CNS(=O)(=O)c1cccc(-c2cc(CN(C)S(=O)(=O)c3ccc(F)c(F)c3)ccc2OCC(=O)O)c1 [Example 50, 2-(3-N-methylsulfamoylphenyl)-4-((3,4-difluoro-N-methylphenylsulfonamido)methyl)phenoxyacetic acid]"
5,< 100 nM,"CN(Cc1cc(-c2cccc(C#N)c2)c(OCC(=O)O)cc1F)S(=O)(=O)c1ccc(F)cc1 [Example 77, 2-(3-cyanophenyl)-4-((4-fluoro-N-methylphenylsulfonamido)methyl)-5-fluorophenoxyacetic acid]"
6,< 100 nM,"CN(Cc1ccc(OCC(=O)O)c(-c2cccc(C#N)c2)c1)S(=O)(=O)c1cccc(Cl)c1 [Example 70, 2-(3-cyanophenyl)-4-((3-chloro-N-methylphenylsulfonamido)methyl)phenoxyacetic acid]"
7,< 100 nM,"CN(Cc1ccc(OCC(=O)O)c(-c2cc(F)cc(C#N)c2)c1)S(=O)(=O)c1cc(Cl)c(Cl)s1 [Example 192, 2-(3-cyano-5-fluorophenyl)-4-((2,3-dichloro-N-methylthiophene-5-sulfonamido)methyl)phenoxyacetic acid]"
8,< 100 nM,"Cc1cc(S(=O)(=O)N(C)Cc2ccc(OCC(=O)O)c(-c3cc(F)cc(F)c3)c2)ccc1F [Example 82, 2-(3,5-difluorophenyl)-4-((3-methyl-4-fluoro-N-methylphenylsulfonamido)methyl)phenoxyacetic acid]"
9,< 100 nM,"CN(Cc1ccc(OCC(=O)O)c(-c2cc(F)cc(C#N)c2)c1)S(=O)(=O)c1ccc(F)cc1 [Example 64, 2-(3-cyano-5-fluorophenyl)-4-((4-fluoro-N-methylphenylsulfonamido)methyl)phenoxyacetic acid]"
10,< 100 nM,"CN(Cc1ccc(OCC(=O)O)c(-c2cccc(C#N)c2)c1)S(=O)(=O)c1ccc(F)c(F)c1 [Example 63, 2-(3-cyanophenyl)-4-((3,4-difluoro-N-methylphenylsulfonamido)methyl)phenoxyacetic acid]"
11,< 100 nM,"CN(Cc1ccc(OCC(=O)O)c(-c2cc(F)cc(C#N)c2)c1)S(=O)(=O)c1ccccc1 [Example 80, 2-(3-cyano-5-fluorophenyl)-4-((N-methylphenylsulfonamido)methyl)phenoxyacetic acid]"
12,< 100 nM,"CN(Cc1ccc(OCC(=O)O)c(-c2cccc(S(C)(=O)=O)c2)c1)S(=O)(=O)c1ccc(F)c(F)c1 [Example 47, 2-(3-methylsulfonylphenyl)-4-((3,4-difluoro-N-methylphenylsulfonamido)methyl)phenoxyacetic acid]"
13,< 100 nM,"N#Cc1cc(F)cc(-c2cc(CNS(=O)(=O)c3ccc(F)c(F)c3)ccc2OCC(=O)O)c1 [Example 194, 2-(3-cyano-5-fluorophenyl)-4-((3,4-difluorophenylsulfonamido)methyl)phenoxyacetic acid]"

# Reference: US8822467B2 (Ligand Pharmaceuticals Inc., priority 2009, dated 2014)
